Experimental data published in PubChem BioAssay (NCI).
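Five compound concentrations were applied to cells in 96-well plates for 48 hours; endpoints were derived by simple linear interpolation of the resulting dose-response curve. Abbreviation: GI50, concentration required for 50% inhibition of growth. TGI is the concentration that stops growth completely.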

Tests used:
Test in all cases: growth of human tumour cells (NCI), 48 h
NCI/ADR-RES ovarian = system: NCI/ADR-RES ovarian
MOLT-4 leukemia = system: MOLT-4 leukemia
BT-549 breast = system: BT-549 breast
U251 CNS = system: U251 CNS
DU-145 prostate = system: DU-145 prostate
HOP-62 NSCLC = system: HOP-62 NSCLC
SK-MEL-2 melanoma = system: SK-MEL-2 melanoma
MCF7 breast = system: MCF7 breast
NCI-H23 lung = system: NCI-H23 lung
OVCAR-4 ovarian = system: OVCAR-4 ovarian

## CN(C)c1ccc2[nH]c(O)c(C=Nc3ccc(S(N)(=O)=O)cc3)c2c1
NCI/ADR-RES ovarian
  GI50: > 25 µM
  TGI: > 25 µM
MOLT-4 leukemia
  GI50: > 25 µM
  TGI: > 25 µM
BT-549 breast
  GI50: > 25 µM
  TGI: > 25 µM
U251 CNS
  GI50: > 25 µM
  TGI: > 25 µM
DU-145 prostate
  GI50: > 25 µM
  TGI: > 25 µM
HOP-62 NSCLC
  GI50: > 25 µM
  TGI: > 25 µM
SK-MEL-2 melanoma
  GI50: > 25 µM
  TGI: > 25 µM
MCF7 breast
  GI50: 19 µM
  TGI: > 25 µM
NCI-H23 lung
  GI50: > 25 µM
  TGI: > 25 µM
OVCAR-4 ovarian
  GI50: > 25 µM
  TGI: > 25 µM

## CN1CCN(Cc2ccc(NC(=O)c3[nH]ncc3Nc3ccnc4ccsc34)cc2)CC1
NCI/ADR-RES ovarian
  GI50: 15.7 µM
  TGI: > 100 µM
MOLT-4 leukemia
  GI50: 2.09 µM
  TGI: 7.93 µM
BT-549 breast
  GI50: 4.3 µM
  TGI: 15.9 µM
U251 CNS
  GI50: 2.4 µM
  TGI: 13.6 µM
DU-145 prostate
  GI50: 2.17 µM
  TGI: 11.6 µM
HOP-62 NSCLC
  GI50: 2.82 µM
  TGI: 14.2 µM
SK-MEL-2 melanoma
  GI50: 3.86 µM
  TGI: 14.7 µM
MCF7 breast
  GI50: 0.489 µM
  TGI: 11.7 µM
NCI-H23 lung
  GI50: 2.03 µM
  TGI: 6.64 µM
OVCAR-4 ovarian
  GI50: 2.32 µM
  TGI: 7.47 µM

## CCSc1nc(=S)[nH]c2[nH]ncc12
NCI/ADR-RES ovarian
  GI50: > 100 µM
  TGI: > 100 µM
MOLT-4 leukemia
  GI50: > 100 µM
  TGI: > 100 µM
BT-549 breast
  GI50: > 100 µM
  TGI: > 100 µM
U251 CNS
  GI50: > 100 µM
  TGI: > 100 µM
DU-145 prostate
  GI50: > 100 µM
  TGI: > 100 µM
HOP-62 NSCLC
  GI50: > 100 µM
  TGI: > 100 µM
SK-MEL-2 melanoma
  GI50: > 100 µM
  TGI: > 100 µM
MCF7 breast
  GI50: 66.8 µM
  TGI: > 100 µM
NCI-H23 lung
  GI50: > 100 µM
  TGI: > 100 µM
OVCAR-4 ovarian
  GI50: > 100 µM
  TGI: > 100 µM
